# From PMC3004914, “Classification of Drugs Based on Properties of Sodium Channel Inhibition: A Comparative Automated Patch-Clamp Study” (PLoS ONE, 2010)
# Where two headings read alike, the source gives them in different places.
# Key:
# [1] = human plasma, cited from earlier work
# [2] = molecular target: T1, rNav1.2 sodium channels (HEK-293 cells) (Rattus norvegicus, UniProt P04775); experiment: 5 Hz train protocol, QPatch automated patch-clamp; format: cell-based; conditions: for τoff: 500 s assigned where irreversible; for Rev (reversibility): Rev = A5/A1 after washout; for potency estimated from few doses: −90 mV, read-out: IC50;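 on UD (use-dependence of the inhibition): UD = (A3/A4)/(A1/A2) as ratios of peak amplitudes from Figure 1A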
# From the text: The dynamics of the onset and offset of inhibition was monitored using 5 Hz trains of five depolarizing pulses from a holding potential of −90 mV to −10 mV. The trains were repeated every 20 s. Drugs were applied after 10 control trains and 10 trains were delivered in the presence of the drug. The drug was then washed out, and the 10 trains were repeated.
# We measured inhibition (Inh; from which we calculated IC50 values as described in Materials and Methods), reversibility of inhibition (Rev) and use-dependence (UD), as well as time constant of onset (τon) and offset (τoff). The calculation of IC50, quantification of Rev and UD, and the determination of time constants are illustrated in Figure 1A. Because τon should be concentration-dependent if we assume a single binding reaction, we excluded it from the analyses. […] Comments on the interpretation of these properties (Rev, […] and UD) are in Results S1.
# (§1) A)–D) Peak amplitudes of evoked currents (5 Hz trains of 5 depolarizations from −90 to −10 mV) are plotted against time. Black dots: Control. Grey dots: Drug perfusion. […] Calculation of properties of inhibition is illustrated. […] E) Calculation of Kr and Ki values from steady-state availability curves.
# (§2) HEK-293 cells stably expressing rNav1.2 sodium channels were obtained from NeuroSearch (Ballerup, Denmark).
# (§3) Cells were automatically prepared for application to the chips (centrifuged and washed twice, then resuspended in extracellular solution) as described previously. Composition of the extracellular solution was: (in mM): 140 NaCl, 3 KCl, 1 CaCl2, 1 MgCl2, 0.1 CdCl2, 20 TEA-Cl, 5 HEPES, adjusted to pH 7.3, Osmolality: ∼320 mOsm.
# (§4) All electrophysiological experiments were conducted on Qpatch-16 or QPatch HT instruments using QPlate™ chips. For a detailed description of the instrument and the patch-clamp chips see [37], [38]. Data were sampled at a frequency of 25 kHz and filtered at 5 kHz. […] The amplifier was controlled and the data were collected by the Sophion QPatch client software. For initial data analysis the QPatch software was used. Built-in amplifiers provide an improved method for series resistance compensation. Leak subtraction (based on a standard P/n protocol) was used to subtract the capacitive component of currents.
# From this protocol we extracted five parameters, as illustrated in Figure 1A. We calculated inhibition of a single “cc” concentration: Inh = (amplitudectr – amplitudedrug)/amplitudectr.
# [3] = molecular target: T1, rNav1.2 sodium channels (HEK-293 cells); experiment: steady-state inactivation protocol (availability curves), QPatch automated patch-clamp; format: cell-based
# From the text: as §1
# Standard steady-state inactivation protocols were used to measure the shift of steady-state availability curve caused by the drugs. Currents were evoked by a 10 ms test pulse to −10 mV, preceded by 400 ms pre-pulses from −150 to −30 mV. […] Because the inhibition at hyperpolarized potentials (Inh−150), and the shift of the availability curves (ΔV1/2) are both concentration-dependent properties, we calculated affinities to hyperpolarized and depolarized states (“resting state affinity”: Kr, and “inactivated state affinity”: Ki), which, on the other hand, are concentration-independent characteristics of individual drugs. Calculation of Kr and Ki values are described in Materials and Methods, and illustrated in Figure 1E. State-dependence (SD) was quantified as the ratio Kr/Ki.
# as §2, §3, §4
# Inactivated affinity (Ki) values were calculated assuming a simple four-state model of drug binding and channel gating, using two separate methods: (1) from the shift of the availability curve (ΔV1/2), the slope of the Boltzmann fit of the availability curve (k) and Kr, using the formula described by Bean, Cohen and Tsien (Ki−ΔV1/2; see Figure 1E), or (2) from the apparent affinity (Kapp) at a certain pre-pulse potential, which was calculated from the inhibition (e.g. Inh−60) as described above, and the availability (h) at the same pre-pulse potential, using the formula from Kuo and Bean (Figure 1E). […] (Arithmetic means and SEM values are given in Results S7.)
# [4] = HEK293, 100 μM, −90 mV holding potential, 5 Hz train, read-out: Inh (inhibited fraction)
# [5] = HEK293, calculated from Inh at single concentration 100 μM, 5 Hz train
# [6] = HEK293, −90 mV holding potential, 5 Hz train, read-out: Inh (inhibited fraction)
# [7] = HEK293, calculated from Inh at single concentration 300 μM, 5 Hz train
# T1 sequence (P04775 whole entry): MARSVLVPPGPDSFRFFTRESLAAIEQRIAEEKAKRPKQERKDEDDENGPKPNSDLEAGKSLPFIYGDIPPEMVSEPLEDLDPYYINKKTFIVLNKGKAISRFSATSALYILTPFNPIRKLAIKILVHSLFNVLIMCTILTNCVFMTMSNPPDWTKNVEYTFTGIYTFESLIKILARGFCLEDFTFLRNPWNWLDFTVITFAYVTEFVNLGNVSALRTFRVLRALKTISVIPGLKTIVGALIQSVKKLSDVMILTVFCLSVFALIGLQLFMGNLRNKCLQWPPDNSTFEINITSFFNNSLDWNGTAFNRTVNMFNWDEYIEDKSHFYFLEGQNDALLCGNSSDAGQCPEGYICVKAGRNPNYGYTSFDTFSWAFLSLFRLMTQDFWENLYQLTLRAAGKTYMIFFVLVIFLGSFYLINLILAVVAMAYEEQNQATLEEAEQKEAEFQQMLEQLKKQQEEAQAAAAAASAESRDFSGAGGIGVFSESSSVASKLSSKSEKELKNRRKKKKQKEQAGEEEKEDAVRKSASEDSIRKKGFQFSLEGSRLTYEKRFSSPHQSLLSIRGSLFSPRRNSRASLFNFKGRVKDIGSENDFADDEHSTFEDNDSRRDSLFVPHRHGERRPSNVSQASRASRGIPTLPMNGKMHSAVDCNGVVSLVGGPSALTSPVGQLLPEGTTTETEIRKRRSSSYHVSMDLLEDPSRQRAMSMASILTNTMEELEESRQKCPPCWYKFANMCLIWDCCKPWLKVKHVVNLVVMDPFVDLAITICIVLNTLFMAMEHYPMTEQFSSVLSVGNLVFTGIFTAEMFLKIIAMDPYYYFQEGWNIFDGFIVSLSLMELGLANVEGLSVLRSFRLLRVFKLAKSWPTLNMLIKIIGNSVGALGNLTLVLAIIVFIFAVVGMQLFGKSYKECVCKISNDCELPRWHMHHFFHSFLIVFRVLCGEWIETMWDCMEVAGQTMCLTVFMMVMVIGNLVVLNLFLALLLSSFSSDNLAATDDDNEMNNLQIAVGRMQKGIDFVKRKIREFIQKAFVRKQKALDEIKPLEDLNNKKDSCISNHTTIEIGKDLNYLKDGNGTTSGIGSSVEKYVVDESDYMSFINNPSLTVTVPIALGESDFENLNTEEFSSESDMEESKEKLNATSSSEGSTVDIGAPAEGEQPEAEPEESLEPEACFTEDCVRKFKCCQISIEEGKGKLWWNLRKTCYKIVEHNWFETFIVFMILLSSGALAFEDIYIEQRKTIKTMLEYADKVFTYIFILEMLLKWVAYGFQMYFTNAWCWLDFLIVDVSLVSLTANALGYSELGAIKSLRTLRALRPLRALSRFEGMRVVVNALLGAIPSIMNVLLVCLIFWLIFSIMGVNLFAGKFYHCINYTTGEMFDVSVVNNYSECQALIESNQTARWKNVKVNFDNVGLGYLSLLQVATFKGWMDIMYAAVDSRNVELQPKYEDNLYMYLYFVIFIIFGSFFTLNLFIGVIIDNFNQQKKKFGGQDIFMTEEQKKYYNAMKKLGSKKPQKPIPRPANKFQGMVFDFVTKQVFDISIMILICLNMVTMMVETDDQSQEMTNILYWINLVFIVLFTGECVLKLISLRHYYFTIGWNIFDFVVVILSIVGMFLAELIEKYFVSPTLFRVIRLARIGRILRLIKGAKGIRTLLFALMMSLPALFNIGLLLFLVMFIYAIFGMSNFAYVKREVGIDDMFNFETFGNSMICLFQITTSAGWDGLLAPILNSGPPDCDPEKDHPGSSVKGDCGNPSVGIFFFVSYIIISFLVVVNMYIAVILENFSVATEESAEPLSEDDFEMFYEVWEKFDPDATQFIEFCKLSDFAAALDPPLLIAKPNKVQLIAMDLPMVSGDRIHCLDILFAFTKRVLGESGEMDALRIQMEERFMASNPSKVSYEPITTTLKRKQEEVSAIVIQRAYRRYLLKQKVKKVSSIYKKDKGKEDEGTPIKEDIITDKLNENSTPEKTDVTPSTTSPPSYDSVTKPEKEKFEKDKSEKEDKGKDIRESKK
smiles,measurement,setting,value
"CN1CCN2c3ccccc3Cc3ccccc3C2C1 (stereo not shown) [MIA, Mianserin]",plasma conc.,[1]; as printed in each cell,0.01 [47] µg/ml
same,plasma conc.,[1]; as printed in the µg/ml cell,0.037 µM
"CNCCCC12CCC(c3ccccc31)c1ccccc12 [MPR, Maprotiline]",plasma conc.,[1]; as printed in each cell,0.25 [45] µg/ml
same,plasma conc.,[1]; as printed in the µg/ml cell,0.797 µM
"CN1CCN2c3ncccc3Cc3ccccc3C2C1 (stereo not shown) [MRZ, Mirtazapine]",τon,[2]; 100 μM,3.99 s
same,UD (use-dependence of the inhibition),"[2]; 100 μM, 5 Hz train",1.14
same,τoff,[2]; 100 μM,7.47 s
same,Rev (reversibility),[2]; 100 μM,0.89
same,inhibition at 100 µM,[2]; [4],43%
same,potency estimated from few doses,[2]; [5],132 µM
same,inhibition at 100 µM,"[3]; HEK293, 100 µM, read-out: Inh (inhibited fraction) at holding potential −150 mV",24%
same,Ki,"[3]; arithmetic mean, 100 µM, read-out: Ki-Kapp arith",7.94 µM
same,Ki,"[3]; arithmetic mean, 100 µM, read-out: Ki-ΔV1/2 arith",5.65 µM
same,Kd,"[3]; arithmetic mean, 100 µM, read-out: Kr arith",317 µM
same,Kd,"[3]; geometric mean, from Inh at −150 mV, 100 µM, read-out: Kr (resting state affinity)",317 µM
same,Ki,"[3]; geometric mean, from apparent affinity, 100 µM, read-out: Ki−Kapp (inactivated state affinity)",7.62 µM
same,Ki,"[3]; geometric mean, from shift of availability curve, 100 µM, read-out: Ki−ΔV1/2 (inactivated state affinity)",5.63 µM
"CCc1nn(CCCN2CCN(c3cccc(Cl)c3)CC2)c(=O)n1CCOc1ccccc1 [NFZ, Nefazodone]",plasma conc.,[1]; as printed in each cell,1.52 [48] µg/ml
same,plasma conc.,[1]; as printed in the µg/ml cell,3.007 µM
same,τon,[2]; 30 μM,8.75 s
same,UD (use-dependence of the inhibition),"[2]; 30 μM, 5 Hz train",1.22
same,τoff,[2]; 30 μM,10.93 s
same,Rev (reversibility),[2]; 30 μM,0.51
same,inhibition at 30 µM,"[2]; HEK293, 30 μM, −90 mV holding potential, 5 Hz train, read-out: Inh (inhibited fraction)",39%
same,potency estimated from few doses,"[2]; HEK293, calculated from Inh at single concentration 30 μM, 5 Hz train",46.4 µM
same,ΔV1/2 (shift of availability curve),[3]; 30 μM,−17.4 mV
same,inhibition at 30 µM,"[3]; HEK293, 30 µM, read-out: Inh (inhibited fraction) at holding potential −150 mV",9%
same,Ki,"[3]; arithmetic mean, 30 µM, read-out: Ki-Kapp arith",1.1 µM
same,Ki,"[3]; arithmetic mean, 30 µM, read-out: Ki-ΔV1/2 arith",1.05 µM
same,Kd,"[3]; geometric mean, from Inh at −150 mV, 30 µM, read-out: Kr (resting state affinity)",567 µM
same,Ki,"[3]; geometric mean, from apparent affinity, 30 µM, read-out: Ki−Kapp (inactivated state affinity)",0.92 µM
same,Ki,"[3]; geometric mean, from shift of availability curve, 30 µM, read-out: Ki−ΔV1/2 (inactivated state affinity)",0.87 µM
"O=C(CCNNC(=O)c1ccncc1)NCc1ccccc1 [NIA, Nialamide]",inhibition at 100 µM,[2]; [4],3%
same,potency estimated from few doses,[2]; [5],3230 µM
"CCN(CC)CCNC(=O)c1ccc(N)cc1 [PRC, Procainamide]",inhibition at 300 µM,[2]; [6],14%
same,potency estimated from few doses,[2]; [7],2010 µM
"CN[C@H]1CC[C@@H](c2ccc(Cl)c(Cl)c2)c2ccccc21 [SRT, Sertraline]",plasma conc.,[1]; as printed in each cell,0.14 [44] µg/ml
same,plasma conc.,[1]; as printed in the µg/ml cell,0.409 µM
"CCN(CC)CCNC(=O)c1cc(S(C)(=O)=O)ccc1OC [TIA, Tiapride]",plasma conc.,[1]; as printed in each cell,0.56 [51] µg/ml
same,plasma conc.,[1]; as printed in the µg/ml cell,1.535 µM
same,inhibition at 300 µM,[2]; [6],7%
same,potency estimated from few doses,[2]; [7],3990 µM
"CC1(C)O[C@@H]2[C@@H](CO[C@@]3(COS(N)(=O)=O)OC(C)(C)O[C@@H]23)O1 [TOP, Topiramate]",plasma conc.,[1]; as printed in each cell,5.5 [44] µg/ml
same,plasma conc.,[1]; as printed in the µg/ml cell,16.21 µM
same,inhibition at 300 µM,[2]; [6],7%
same,potency estimated from few doses,[2]; [7],3990 µM
"O=c1n(CCCN2CCN(c3cccc(Cl)c3)CC2)nc2ccccn12 [TRZ, Trazodone]",plasma conc.,[1]; as printed in each cell,1.5 [44] µg/ml
same,plasma conc.,[1]; as printed in the µg/ml cell,3.673 µM
"NS(=O)(=O)Cc1noc2ccccc12 [ZON, Zonisamide]",plasma conc.,[1]; as printed in each cell,28.4 [44] µg/ml
same,plasma conc.,[1]; as printed in the µg/ml cell,133.82 µM
same,inhibition at 300 µM,[2]; [6],9%
same,potency estimated from few doses,[2]; [7],3030 µM
